This is an account of results in patent US20220264878A1, “HERBICIDAL COMPOSITION CONTAINING R-TYPE PYRIDYLOXY CARBOXYLIC ACID DERIVATIVE AND USE THEREOF” (Qingdao Kingagroot Chemical Compound Co., Ltd., priority 2019, published 2022).

Like-named read-outs stand apart in the source and are kept apart here.

Type in all cases: in vivo
Experiment [1] has as its system Digitaria sanguinalis. Briefly: Post-emergence foliage spray, pot culture, fresh weight inhibition (Tables 151-206; 20 days). The settings on record: Digitaria sanguinalis, 480 h, read-out: Control effect (%) of A applied alone in corresponding dose. Here is the method:
Table 151-206: Digitaria sanguinalis, Amaranthus retroflexus, Conyza Canadensis, Capsella bursa-pastoris, Eleusine indica were collected in Huangdao of Shandong Province, Sinapis arvensis were collected in Sixian of Anhui Province, Alopecurus japonicus were collected in Tianchang of Anhui Province, Veronica didyma were collected in Siyang of Jiangsu Province.
(§1) The above weeds were cultivated by a pot culture method. […] Full and uniform weed seeds were selected, soaked in warm water at 25° C. for 6 hours, and germinated in a 28° C. biochemical incubator (darkness). The weed seeds that had just germinatedwere evenly placed on the surface of the soil and then covered with 0.5-1 cm soil according to the sizes of seeds.
The culture was carried out in a controllable sunlight greenhouse at 20 to 30° C., in natural light, and relative humidity of 57% to 72%.
(§2) The technical materials were all dissolved in acetone, and diluted with an aqueous solution containing 0.1% emulsifier Tween-80. The dilution is performed as required.
(§3) A ratio of the active ingredient A to the active ingredient B and amounts thereof in each group depends on the characteristics and toxicity of the two agents, as well as the main application purpose of a corresponding formulation. Based on the pre-tests in this study, the dosage of the active ingredient A and B applied alone and in combination were shown in the tables. Water containing the solvent and emulsifier same with the above groups but free of the agents was used as a blank control.
Table 1-48, 51-98, 101-148, 151-206: […] per treatment, that is, a total of 60 weeds were treated in one treatment.
Table 151-206: The agents were used for only once in the experiment. In the stage of weeds with 3˜4 leaves, the weeds were thinned out to maintain 15 weeds per pot and 45 weeds for each treatment, then continued to be cultured to 4˜5 leaves stage of grassy weeds, 5˜6 leaves stage of broadleaf weeds, and treated.
(§4) The well-cultured weeds were evenly placed on a platform with an area of 0.5 m^2, and a solution of agents was sprayed on the stems and leaves thereof by the 3WP-2000-type walking spray tower at a dosage of 450 kg/ha and at a spray pressure of 0.3 MPa. After all the solution was sprayed, the valve was closed. After 30 seconds, the door of the spray tower was opened, and the nutritional bowl was taken out. Then the valve was opened, and the spray tube was cleaned by spraying 50 ml of water.
(§5) A pot-culture method was employed. For the cultivation of weeds, please refer to the Section 1.1), and “Pesticide guidelines for laboratory bioactivity tests—herbicides”. As to a method for applying agents, please refer to the section 2.3.2), that is, a foliage treatment was employed. After the treatment, the weeds were routinely cultured in a greenhouse.
(§6) A method for investigating absolute number was employed, wherein whole seedlings of survival weeds were cut off with a blade along the soil surface, and the fresh weight of the weeds was weighed with an analytical balance. For dead weeds, the fresh weight thereof was zero.
Table 151-206: The investigation was performed after 20 days of the treatment for only once.
Theoretical fresh weight inhibition rate of a combination of two active ingredients in each group was calculated by the Gowing method (E0=X+Y−X*Y/100), and then compared with an actually measured inhibition rate (E), thereby effect of the combination (hereafter referred to as combined effect) on weeds was evaluated: the value of E-E0, which was greater than 10%, corresponded to a synergistic effect, the value of E-E0, which was less than −10%, corresponded to an antagonistic effect, and the value of E-E0, which was from −10% to 10%, corresponded to an additional effect.

The test system of experiment [2] is Capsella bursa-pastoris. The description is as above. The settings on record: Capsella bursa-pastoris, 480 h, read-out: Control effect (%) of A applied alone in corresponding dose. Here is the method: as §1, §2, §3
In the stage of weeds with 3˜4 leaves, the weeds were thinned out to maintain 15 weeds per pot and 45 weeds for each treatment, then continued to be cultured to 4˜5 leaves stage of grassy weeds, 5˜6 leaves stage of broadleaf weeds, and treated.
as §4, §5, §6
(§7) Wherein, in the formula, X represented the fresh weight inhibition rate of the active ingredient A in a dosage of P, and Y represented the fresh weight inhibition rate of the active ingredient B in a dosage of Q.

The subject of experiment [3] is Echinochloa caudate. Briefly: Post-emergence foliage spray, pot culture, fresh weight inhibition (Tables 1-48, 51-98, 101-148; 24 days). Here is the method: as §1, §2, §3
(§8) In the stage of weeds with 3˜4 leaves, the weeds were thinned out to maintain 15 weeds per pot and 45 weeds for each treatment, then continued to be cultured to 5˜6 leaves stage of grassy weeds, 6˜7 leaves stage of broadleaf weeds, and treated.
as §4, §5, §6, §7

Experiment [4] concerns Echinochloa oryzoides. The description is as above. Here is the method: as §1, §2, §3, §8, §4, §5, §6, §7
The mark [5] stands for this setting: A alone 75 g a.i./ha, 20 days after treatment.
Setting [6] is: A alone 150 g a.i./ha, 20 days after treatment.
The mark [7] stands for this setting: Echinochloa, 576 h, read-out: Control effect (%) of B applied alone in corresponding dose.
Setting [8] is: Echinochloa oryzoides, 576 h, read-out: Control effect (%) of B applied alone in corresponding dose.

With `CCCCCCCCCCCOC(=O)[C@@H](C)Oc1nc(F)c(Cl)c(N)c1Cl` [Compound A94], the pest or weed control at 75 g/ha came to 23.4% in experiment [1] (A 75 g a.i./ha, 20 days) and 6.2% in experiment [2] (A 75 g a.i./ha, 20 days). For the same compound, the pest or weed control at 150 g/ha in experiment [1] (A 150 g a.i./ha, 20 days) came out at 51.7%; in experiment [2] (A 150 g a.i./ha, 20 days), 12.6%.

Turning to `CC(C)=NOC(=O)[C@@H](C)Oc1nc(F)c(Cl)c(N)c1Cl` [Compound A130], the pest or weed control at 75 g/ha was 16.7% in experiment [1] (setting [5]) and 5.4% in experiment [2] (setting [5]). For the same compound, the figures for the pest or weed control at 150 g/ha in experiment [1] (setting [6]) and in experiment [2] (setting [6]) were 36.8% and 13.2%, respectively.

Turning to `C[C@@H](Oc1nc(F)c(Cl)c(N)c1Cl)C(=O)OCc1ccccc1` [Compound A141], the pest or weed control at 75 g/ha in experiment [1] (A 75 g a.i./ha, 20 days) is 27.7%; in experiment [2] (A 75 g a.i./ha, 20 days), 7.8%. Moreover, the pest or weed control at 150 g/ha in experiment [1] (A 150 g a.i./ha, 20 days) stood at 55.8%; in experiment [2] (A 150 g a.i./ha, 20 days), 16.4%.

Take `COC(=O)[C@H](Oc1nc(F)c(Cl)c(N)c1Cl)c1ccccc1` [Compound A171]: the pest or weed control at 75 g/ha turned out to be 19.2% in experiment [1] (A 75 g a.i./ha, 20 days) and 12.2% in experiment [2] (A 75 g a.i./ha, 20 days). The pest or weed control at 150 g/ha in experiment [1] (A 150 g a.i./ha, 20 days) was 31.9%; in experiment [2] (A 150 g a.i./ha, 20 days), 28.9%.

As for `CC[C@@H](Oc1nc(F)c(Cl)c(N)c1Cl)C(=O)OC` [Compound A172], the pest or weed control at 75 g/ha in experiment [1] (A 75 g a.i./ha, 20 days) was 21.2%; in experiment [2] (A 75 g a.i./ha, 20 days) it was 22.4%. The pest or weed control at 150 g/ha in experiment [1] (A 150 g a.i./ha, 20 days) came to 38.9%; in experiment [2] (A 150 g a.i./ha, 20 days) it was 47.9%.

For the compound `COC(=O)[C@@H](C)Oc1ncc(Cl)c(N)c1Cl` [Compound A173], the pest or weed control at 75 g/ha worked out at 38.2% in experiment [1] (A 75 g a.i./ha, 20 days) and 24.8% in experiment [2] (A 75 g a.i./ha, 20 days). Moreover, the pest or weed control at 150 g/ha in experiment [1] (A 150 g a.i./ha, 20 days) came to 73.6%; in experiment [2] (A 150 g a.i./ha, 20 days) it was 52.4%.

Consider `C[C@@H](Oc1nc(F)c(Cl)c(N)c1Cl)C(=O)SCc1ccco1` [Compound A211], for which the pest or weed control at 75 g/ha was 31.3% in experiment [1] (A 75 g a.i./ha, 20 days) and 5.8% in experiment [2] (A 75 g a.i./ha, 20 days). In addition, the pest or weed control at 150 g/ha worked out at 68.3% in experiment [1] (A 150 g a.i./ha, 20 days) and 14.6% in experiment [2] (A 150 g a.i./ha, 20 days).

Regarding `C[C@@H](Oc1ncc(Br)c(N)c1Br)C(=O)O` [Compound A212], the pest or weed control at 75 g/ha in experiment [1] (A 75 g a.i./ha, 20 days) was determined as 11.5%; in experiment [2] (A 75 g a.i./ha, 20 days) it was 8.6%. Further, the pest or weed control at 150 g/ha stood at 24.6% in experiment [1] (A 150 g a.i./ha, 20 days) and 14.5% in experiment [2] (A 150 g a.i./ha, 20 days).

On to `Cc1c(F)c(F)c(COC(=O)[C@@H](C)Oc2nc(F)c(Cl)c(N)c2Cl)c(F)c1F` [Compound A213], for which the pest or weed control at 75 g/ha in experiment [1] (setting [5]) stood at 14.9%; in experiment [2] (setting [5]), 14.6%. In addition, the pest or weed control at 150 g/ha stood at 31.2% in experiment [1] (setting [6]) and 26.8% in experiment [2] (setting [6]).

With `CCCCOCCOC(=O)[C@@H](C)Oc1nc(F)c(Cl)c(N)c1Cl` [Compound A214], the pest or weed control at 75 g/ha in experiment [1] (setting [5]) was 21.9%; in experiment [2] (setting [5]), 24.8%. Moreover, the pest or weed control at 150 g/ha in experiment [1] (setting [6]) stood at 44.6%; in experiment [2] (setting [6]), 46.2%.

On to `COC(=O)[C@@H](C)Oc1ccc(Oc2cnc3cc(Cl)ccc3n2)cc1` [quizalofop-P-methyl], for which the “Control effect (%) of B applied alone in corresponding dose” value (shortened to “Control effect (%) of B applied alone”) in experiment [3] (quizalofop-P-methyl 3.75 g a.i./ha) is given as 3.4%; in experiment [3] (quizalofop-P-methyl 7.5 g a.i./ha) it was 12.2%; in experiment [3] (quizalofop-P-methyl 15 g a.i./ha), 40.8%; in experiment [3] (quizalofop-P-methyl 30 g a.i./ha), 72.1%; in experiment [4] (B 3.75 g a.i./ha), 5.9%; in experiment [4] (B 7.5 g a.i./ha) it was 14.6%. For the same compound, the “Control effect (%) of B applied alone” value in experiment [4] (B 15 g a.i./ha) amounted to 38.6%; in experiment [4] (B 30 g a.i./ha), 63.3%.

As for `CCC/C(=N\OCC)C1=C(O)CC(CC(C)SCC)CC1=O` (centres unmarked) [sethoxydim], in experiment [3] (setting [7]), the pest or weed control at 15 g/ha was determined as 5.1%, the pest or weed control at 30 g/ha was 21.5%, the pest or weed control at 60 g/ha worked out at 42.6% and the pest or weed control at 120 g/ha stood at 61.6%. Further, in experiment [4] (setting [8]), the pest or weed control at 15 g/ha was 5.5%, the pest or weed control at 30 g/ha was determined as 13.8%, the pest or weed control at 60 g/ha is 35.4% and the pest or weed control at 120 g/ha was determined as 68.4%.

`COC(=O)c1ccccc1S(=O)(=O)NC(=O)Nc1nc(C)cc(C)n1` [sulfometuron-methyl]: in experiment [3] (setting [7]), the pest or weed control at 9.375 g/ha amounted to 3.8%, the pest or weed control at 18.75 g/ha turned out to be 13.9%, the pest or weed control at 37.5 g/ha amounted to 24.6% and the pest or weed control at 75 g/ha stood at 52.7%. Moreover, in experiment [4] (setting [8]), the pest or weed control at 9.375 g/ha worked out at 3.2%, the pest or weed control at 18.75 g/ha was 12.6%, the pest or weed control at 37.5 g/ha was 38% and the pest or weed control at 75 g/ha turned out to be 53.8%.

Regarding `CS(=O)(=O)c1ccc(C(=O)C2C(=O)CCCC2=O)c(Cl)c1COCC1CCCO1` (centres unmarked) [tefuryltrione], the “Control effect (%) of B applied alone” value in experiment [3] (Table 81, 7.5 g a.i./ha) is listed as 6.8%; in experiment [3] (Table 81, 15 g a.i./ha), 13.1%; in experiment [3] (Table 81, 30 g a.i./ha) it was 41.3%; in experiment [3] (Table 81, 60 g a.i./ha) it was 65.4%; in experiment [4] (B 7.5 g a.i./ha) it was 8.9%; in experiment [4] (B 15 g a.i./ha), 18.8%. In addition, the “Control effect (%) of B applied alone” value in experiment [4] (B 30 g a.i./ha) amounted to 46.1%; in experiment [4] (B 60 g a.i./ha), 69.3%.

`Cc1cc(C)n(Cc2c(S(C)(=O)=O)ccc(C(=O)c3c(C)nn(C)c3OC(=O)c3cn(C)nc3C)c2Cl)n1` [tripyrasulfone]: the “Control effect (%) of B applied alone” value in experiment [3] (Table 80, 18.75 g a.i./ha) turned out to be 4.6%; in experiment [3] (Table 80, 37.5 g a.i./ha), 16.0%; in experiment [3] (Table 80, 75 g a.i./ha) it was 42.6%; in experiment [3] (Table 80, 150 g a.i./ha), 74.3%; in experiment [4] (B 18.75 g a.i./ha), 8.9%; in experiment [4] (B 37.5 g a.i./ha), 18.0%. Besides, the results for the “Control effect (%) of B applied alone” value in experiment [4] (B 75 g a.i./ha) and in experiment [4] (B 150 g a.i./ha) were 44.6% and 75.2%, respectively.
